Results: publication PMC3914206

Columns and labels:
Type in all cases: binding
Parameters in all cases: KINOMEscan: ABL1(F317L)-phosphorylated / KINOMEscan: ABL1(H396P)-nonphosphorylated / KINOMEscan: ABL1(H396P)-phosphorylated / KINOMEscan: ABL1(M351T)-phosphorylated / KINOMEscan: ABL1(T315I)-phosphorylated / KINOMEscan: ABL1-nonphosphorylated / KINOMEscan: ABL1-phosphorylated / KINOMEscan: ACVR2A / KINOMEscan: ACVR2B / KINOMEscan: ADCK3 / KINOMEscan: ADCK4 / KINOMEscan: AKT1 / KINOMEscan: AKT3 / KINOMEscan: ALK / KINOMEscan: ARK5 / KINOMEscan: AURKA / KINOMEscan: AURKC / KINOMEscan: BIKE / KINOMEscan: BMPR1A / KINOMEscan: BMPR1B / KINOMEscan: BMX / KINOMEscan: BRK / KINOMEscan: BRSK1 / KINOMEscan: BRSK2 / KINOMEscan: CAMK1 / KINOMEscan: CAMK1D / KINOMEscan: CAMK1G / KINOMEscan: CAMK2A / KINOMEscan: CAMK2B / KINOMEscan: AAK1 / KINOMEscan: CAMK2D / KINOMEscan: CAMK2G / KINOMEscan: ABL1(F317I)-nonphosphorylated / KINOMEscan: ABL1(F317I)-phosphorylated / KINOMEscan: ABL1(F317L)-nonphosphorylated: unit: % Ctrl
panel of 442 kinases [1] = target: T1, panel of 442 kinases (Homo sapiens, UniProt P35590); conditions: kinase TIE1; compound concentration 10 µM
T1 construct: purchased KINOMEscan
T1 sequence (P35590 22-1138): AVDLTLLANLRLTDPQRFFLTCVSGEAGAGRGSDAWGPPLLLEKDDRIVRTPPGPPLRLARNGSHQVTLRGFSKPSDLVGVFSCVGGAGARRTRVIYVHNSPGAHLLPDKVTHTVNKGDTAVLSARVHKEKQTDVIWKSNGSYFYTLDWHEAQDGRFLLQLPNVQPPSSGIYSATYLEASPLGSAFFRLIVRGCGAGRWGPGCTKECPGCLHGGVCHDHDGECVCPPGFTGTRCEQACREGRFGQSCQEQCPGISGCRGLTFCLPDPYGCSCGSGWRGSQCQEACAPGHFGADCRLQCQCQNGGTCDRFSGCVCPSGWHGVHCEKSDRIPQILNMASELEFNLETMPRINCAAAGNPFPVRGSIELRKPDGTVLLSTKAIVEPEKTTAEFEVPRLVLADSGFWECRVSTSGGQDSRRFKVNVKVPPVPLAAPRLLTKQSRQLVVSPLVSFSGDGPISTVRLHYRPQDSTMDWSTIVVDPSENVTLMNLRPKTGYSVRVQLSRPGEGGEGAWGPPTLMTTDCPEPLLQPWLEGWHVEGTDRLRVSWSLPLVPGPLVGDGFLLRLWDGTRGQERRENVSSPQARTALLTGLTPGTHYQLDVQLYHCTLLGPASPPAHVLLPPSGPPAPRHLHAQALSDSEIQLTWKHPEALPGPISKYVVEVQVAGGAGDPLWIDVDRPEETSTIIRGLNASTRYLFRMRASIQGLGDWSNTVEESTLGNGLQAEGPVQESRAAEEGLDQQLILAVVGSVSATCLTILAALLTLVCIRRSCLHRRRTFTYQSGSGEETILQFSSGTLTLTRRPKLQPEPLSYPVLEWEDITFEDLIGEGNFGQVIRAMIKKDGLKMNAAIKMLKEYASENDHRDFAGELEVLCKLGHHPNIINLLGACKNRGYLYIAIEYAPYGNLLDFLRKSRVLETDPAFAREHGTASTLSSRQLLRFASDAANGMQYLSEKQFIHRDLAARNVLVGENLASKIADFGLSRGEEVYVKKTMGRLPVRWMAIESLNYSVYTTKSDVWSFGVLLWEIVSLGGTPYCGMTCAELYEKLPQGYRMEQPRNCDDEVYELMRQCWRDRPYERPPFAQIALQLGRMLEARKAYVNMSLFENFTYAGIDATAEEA
Excerpt: (§1) We assessed the selectivity of members of this scaffold using the KINOMEscan methodology across a near comprehensive panel of 442 kinases [[18,27]].

panel of 442 kinases [2] = target: T2, panel of 442 kinases (Homo sapiens, UniProt P36894); conditions: Compound Concentration 10 µM
T2 construct: purchased KINOMEscan
T2 sequence (P36894 24-532): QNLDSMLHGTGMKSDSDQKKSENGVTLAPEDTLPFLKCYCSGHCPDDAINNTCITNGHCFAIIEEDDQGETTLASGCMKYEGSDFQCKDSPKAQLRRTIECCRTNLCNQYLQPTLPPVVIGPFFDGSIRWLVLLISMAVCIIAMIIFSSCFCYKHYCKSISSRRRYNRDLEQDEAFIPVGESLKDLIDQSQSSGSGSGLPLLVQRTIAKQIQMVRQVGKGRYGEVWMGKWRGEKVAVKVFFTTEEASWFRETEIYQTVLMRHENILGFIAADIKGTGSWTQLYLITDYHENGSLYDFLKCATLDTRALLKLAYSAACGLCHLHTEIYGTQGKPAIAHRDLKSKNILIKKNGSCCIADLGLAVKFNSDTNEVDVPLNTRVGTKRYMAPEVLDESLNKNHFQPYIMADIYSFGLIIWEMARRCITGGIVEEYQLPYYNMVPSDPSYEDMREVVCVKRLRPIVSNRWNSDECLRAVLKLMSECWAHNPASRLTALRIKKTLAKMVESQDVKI
Excerpt: as §1

panel of 442 kinases [3] = target: T3, panel of 442 kinases (Homo sapiens, UniProt Q8NEV4); conditions: Compound Concentration 10 µM
T3 construct: purchased KINOMEscan
T3 sequence (Q8NEV4 whole entry): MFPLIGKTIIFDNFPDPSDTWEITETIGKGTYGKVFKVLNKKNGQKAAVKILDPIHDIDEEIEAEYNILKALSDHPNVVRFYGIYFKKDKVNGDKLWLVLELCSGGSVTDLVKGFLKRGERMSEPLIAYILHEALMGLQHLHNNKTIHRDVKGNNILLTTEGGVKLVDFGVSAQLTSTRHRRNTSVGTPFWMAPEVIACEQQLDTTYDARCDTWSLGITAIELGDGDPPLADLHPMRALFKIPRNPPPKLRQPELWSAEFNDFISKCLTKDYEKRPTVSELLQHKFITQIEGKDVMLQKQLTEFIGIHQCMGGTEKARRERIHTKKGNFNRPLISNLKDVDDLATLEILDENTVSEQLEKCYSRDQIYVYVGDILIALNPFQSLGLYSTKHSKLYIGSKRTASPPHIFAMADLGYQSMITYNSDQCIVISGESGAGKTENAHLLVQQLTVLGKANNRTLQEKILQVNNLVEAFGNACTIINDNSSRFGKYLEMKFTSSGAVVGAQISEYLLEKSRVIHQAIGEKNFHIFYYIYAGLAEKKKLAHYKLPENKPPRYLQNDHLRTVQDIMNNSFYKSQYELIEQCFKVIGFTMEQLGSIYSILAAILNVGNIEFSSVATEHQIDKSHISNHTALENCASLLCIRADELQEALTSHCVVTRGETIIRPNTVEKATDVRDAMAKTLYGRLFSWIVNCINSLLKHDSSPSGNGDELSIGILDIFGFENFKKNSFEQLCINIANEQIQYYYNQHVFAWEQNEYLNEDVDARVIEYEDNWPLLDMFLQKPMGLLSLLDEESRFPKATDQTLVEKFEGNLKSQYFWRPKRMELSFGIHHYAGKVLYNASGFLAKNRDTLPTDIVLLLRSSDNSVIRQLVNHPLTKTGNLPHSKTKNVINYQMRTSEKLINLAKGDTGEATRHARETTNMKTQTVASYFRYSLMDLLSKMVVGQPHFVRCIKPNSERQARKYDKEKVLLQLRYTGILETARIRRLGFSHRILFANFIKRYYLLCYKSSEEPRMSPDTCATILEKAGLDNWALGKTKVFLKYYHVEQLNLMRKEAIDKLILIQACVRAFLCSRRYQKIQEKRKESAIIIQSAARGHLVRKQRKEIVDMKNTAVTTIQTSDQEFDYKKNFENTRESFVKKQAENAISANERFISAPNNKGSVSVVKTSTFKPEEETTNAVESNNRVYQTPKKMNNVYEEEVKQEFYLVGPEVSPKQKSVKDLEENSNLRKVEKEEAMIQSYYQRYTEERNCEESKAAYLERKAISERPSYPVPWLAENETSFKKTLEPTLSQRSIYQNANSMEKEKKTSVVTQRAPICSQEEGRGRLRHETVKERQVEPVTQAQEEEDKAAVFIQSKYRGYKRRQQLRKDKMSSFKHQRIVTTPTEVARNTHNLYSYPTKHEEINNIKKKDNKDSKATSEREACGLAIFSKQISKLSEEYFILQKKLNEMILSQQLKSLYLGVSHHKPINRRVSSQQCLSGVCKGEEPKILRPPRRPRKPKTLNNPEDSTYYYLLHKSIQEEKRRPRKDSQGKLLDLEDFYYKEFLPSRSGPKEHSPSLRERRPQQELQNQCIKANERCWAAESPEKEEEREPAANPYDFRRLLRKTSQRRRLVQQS
Excerpt: as §1

panel of 442 kinases [4] = target: T4, panel of 442 kinases (Homo sapiens, UniProt Q05397); conditions: Compound Concentration 10 µM
T4 construct: purchased KINOMEscan
T4 sequence (Q05397 whole entry): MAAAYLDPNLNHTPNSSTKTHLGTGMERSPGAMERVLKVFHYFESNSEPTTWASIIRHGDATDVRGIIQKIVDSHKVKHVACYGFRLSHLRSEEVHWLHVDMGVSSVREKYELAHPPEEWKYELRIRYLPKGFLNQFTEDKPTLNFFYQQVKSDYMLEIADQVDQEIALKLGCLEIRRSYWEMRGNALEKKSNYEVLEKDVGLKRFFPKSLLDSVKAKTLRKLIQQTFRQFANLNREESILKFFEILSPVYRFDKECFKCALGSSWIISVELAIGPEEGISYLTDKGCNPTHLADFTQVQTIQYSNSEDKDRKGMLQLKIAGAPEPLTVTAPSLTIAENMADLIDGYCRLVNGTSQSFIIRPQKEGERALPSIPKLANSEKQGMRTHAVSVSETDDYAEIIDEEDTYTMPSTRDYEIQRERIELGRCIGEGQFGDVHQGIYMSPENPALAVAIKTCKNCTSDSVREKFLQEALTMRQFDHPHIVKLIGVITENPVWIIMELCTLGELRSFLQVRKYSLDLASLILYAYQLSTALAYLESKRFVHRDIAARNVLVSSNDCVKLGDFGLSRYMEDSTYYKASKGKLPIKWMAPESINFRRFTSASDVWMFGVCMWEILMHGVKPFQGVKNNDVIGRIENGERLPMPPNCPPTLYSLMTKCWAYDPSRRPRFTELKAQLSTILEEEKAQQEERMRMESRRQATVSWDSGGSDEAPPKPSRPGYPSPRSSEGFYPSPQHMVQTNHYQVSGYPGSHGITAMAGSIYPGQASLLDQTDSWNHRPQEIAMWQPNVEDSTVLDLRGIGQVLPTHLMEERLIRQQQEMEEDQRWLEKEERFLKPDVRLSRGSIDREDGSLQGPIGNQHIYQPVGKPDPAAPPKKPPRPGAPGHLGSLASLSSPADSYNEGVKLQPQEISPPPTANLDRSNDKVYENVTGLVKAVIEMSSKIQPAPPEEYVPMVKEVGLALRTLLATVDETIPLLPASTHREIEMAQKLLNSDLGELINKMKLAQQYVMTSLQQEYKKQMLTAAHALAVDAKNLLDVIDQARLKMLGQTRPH
Excerpt: as §1

Row | SMILES | % Ctrl, TIE1 (panel of 442 kinases [1]) | KINOMEscan: BMPR1A (panel of 442 kinases [2]) | KINOMEscan: MYO3A (panel of 442 kinases [3]) | KINOMEscan: FAK (panel of 442 kinases [4])
1 | COc1cc(C(=O)N2CCC(N3CCN(C)CC3)CC2)ccc1Nc1ncc2c(n1)N1CCc3cccc(c31)C(=O)N2C [Compound 24] | 70 % Ctrl | 67 | – | –
2 | CCOc1cc(C(=O)N2CCC(N3CCN(C)CC3)CC2)ccc1Nc1ncc2c(n1)N(C1CCCC1)c1ccccc1C(=O)N2C [Compound 26] | 100 % Ctrl | 100 | 100 | 57
3 | COc1cc(C(=O)N2CCC(N3CCN(C)CC3)CC2)ccc1Nc1ncc2c(n1)N(C1CCCC1)c1ccccc1C(=O)N2C [Compound 25, 11-cyclopentyl-2-((2-methoxy-4-(4-(4-methylpiperazin-1-yl)piperidine-1-carbonyl)phenyl)amino)-5-methyl-5H-benzo[e]pyrimido[5,4-b][1,4]diazepin-6(11H)-one] | 100 % Ctrl | 96 | 86 | 19
4 | COc1cc(C(=O)N2CCC(N3CCN(C)CC3)CC2)ccc1Nc1ncc2c(n1)N(C)c1ccccc1C(=O)N2C [15 (LRRK2-IN-1)] | 100 % Ctrl | 100 | 94 | 34
